From patent US20240174649A1, “CULLIN-RING E3 UBIQUITIN LIGASE 4 INHIBITOR COMPOUNDS AND METHODS OF THEIR USE” (ICAHN SCHOOL OF MEDICINE AT MOUNT SINAI, priority 2021, published 2024)

What was measured:
E3 (CUL1) = E3 (CUL1) (Homo sapiens (Human), UniProt Q13616); assay: E3 (CUL1) inhibition (Table 1); format: biochemical
Method: The reaction mixture (15 μl) was assembled onto a 384-well microtiter plate. […] ATP (0.66 mM) was then added to the mix followed by a brief centrifugation to settle down the mixture. The resulting plate was incubated at 30° C. in the Synergy-H1 reader and the fluorescence signal was monitored. Ubiquitination was quantified based on the ratio of acceptor:donor fluorescence (excitation 515 nm; donor emission 570 nm, acceptor emission 670 nm).

E3 (CUL4) = E3 (CUL4) (Homo sapiens (Human), UniProt Q13619); assay: E3 (CUL4) inhibition (Table 1); format: biochemical
Sequence of E3 (CUL4) (Q13619 whole entry): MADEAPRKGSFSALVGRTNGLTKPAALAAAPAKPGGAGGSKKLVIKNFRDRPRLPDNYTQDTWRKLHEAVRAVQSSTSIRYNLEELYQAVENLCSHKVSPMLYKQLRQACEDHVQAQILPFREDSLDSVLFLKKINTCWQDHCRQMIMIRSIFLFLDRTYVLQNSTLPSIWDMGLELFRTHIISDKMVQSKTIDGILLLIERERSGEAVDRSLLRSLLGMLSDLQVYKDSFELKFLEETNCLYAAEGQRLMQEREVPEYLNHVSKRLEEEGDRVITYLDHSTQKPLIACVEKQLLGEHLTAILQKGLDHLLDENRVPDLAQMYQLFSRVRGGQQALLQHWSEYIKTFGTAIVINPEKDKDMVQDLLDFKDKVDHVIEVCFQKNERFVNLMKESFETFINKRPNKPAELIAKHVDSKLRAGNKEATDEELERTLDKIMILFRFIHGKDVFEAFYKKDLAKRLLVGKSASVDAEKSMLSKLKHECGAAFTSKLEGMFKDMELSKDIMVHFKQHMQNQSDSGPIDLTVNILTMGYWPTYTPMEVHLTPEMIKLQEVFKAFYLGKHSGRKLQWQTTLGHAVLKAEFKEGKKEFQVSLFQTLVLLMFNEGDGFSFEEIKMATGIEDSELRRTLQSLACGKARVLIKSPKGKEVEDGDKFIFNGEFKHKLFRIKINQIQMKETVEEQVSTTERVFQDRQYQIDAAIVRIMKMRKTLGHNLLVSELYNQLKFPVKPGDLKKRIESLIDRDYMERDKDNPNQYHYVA
Sequence of E3 (CUL4) (P62877 whole entry partner): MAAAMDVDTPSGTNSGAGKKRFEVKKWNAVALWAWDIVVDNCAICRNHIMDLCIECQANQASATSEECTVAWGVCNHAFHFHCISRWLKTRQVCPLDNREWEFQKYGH
Method: The reaction was incubated for 5 min at 37° C. […] The reaction was incubated for 5 min at room temperature. In the second step (chase), the completed Cdc34b-Ub thiol ester reaction mixture was combined with one third of the completed mono-ubiquitination mixture. The final volume was adjusted to 10 μl with a mix that contained 50 mM Tris-HCl (pH 7.4), 0.5 mM DTT, 0.1 mg/ml of BSA, 5 mM MgCl2, and 2 mM ATP. Compounds were added where indicated. The chase reaction was incubated for 10 min at 37° C. The reaction products were separated by 4-20% SDS-polyacrylamide gel electrophoresis. The reaction scheme was identical to the one described above for FIGS. 12A-B. […] The reaction products, separated by SDS-PAGE, were visualized and analyzed by phospho-imaging using Typhoon 9500 scanner.

cancer cells = assay: Apoptosis, Annexin V flow cytometry; format: cell-based; conditions: Table 1
Method: Cells (5×10^4) were seeded 24 hours before compound treatment. Compound was added to the culture media and cells were cultured with the compound for 48 hours. The treated cells were then transferred into 5 ml flow cytometry tubes and the well was washed once with PBS to collect any remaining cells. The cells were then pelleted at 500×g for 5 min with a Beckman CS-6KR centrifuge at 4° C. After removal of supernatant, the cells pellet was washed with Annexin V binding buffer (10 mM Hepes-NaOH, pH 7.4, 150 mM NaCl, 5 mM KCl, 1 mM MgCl2, and 1.8 mM CaCl2). Cells were pelleted once again and incubated in the dark with Annexin V-FITC (2 μg/ml) in binding buffer for 5 min then analyzed using LSRFortessa flow cytometer (BD).

Sequence of E3 (CUL1) (Q13616 whole entry): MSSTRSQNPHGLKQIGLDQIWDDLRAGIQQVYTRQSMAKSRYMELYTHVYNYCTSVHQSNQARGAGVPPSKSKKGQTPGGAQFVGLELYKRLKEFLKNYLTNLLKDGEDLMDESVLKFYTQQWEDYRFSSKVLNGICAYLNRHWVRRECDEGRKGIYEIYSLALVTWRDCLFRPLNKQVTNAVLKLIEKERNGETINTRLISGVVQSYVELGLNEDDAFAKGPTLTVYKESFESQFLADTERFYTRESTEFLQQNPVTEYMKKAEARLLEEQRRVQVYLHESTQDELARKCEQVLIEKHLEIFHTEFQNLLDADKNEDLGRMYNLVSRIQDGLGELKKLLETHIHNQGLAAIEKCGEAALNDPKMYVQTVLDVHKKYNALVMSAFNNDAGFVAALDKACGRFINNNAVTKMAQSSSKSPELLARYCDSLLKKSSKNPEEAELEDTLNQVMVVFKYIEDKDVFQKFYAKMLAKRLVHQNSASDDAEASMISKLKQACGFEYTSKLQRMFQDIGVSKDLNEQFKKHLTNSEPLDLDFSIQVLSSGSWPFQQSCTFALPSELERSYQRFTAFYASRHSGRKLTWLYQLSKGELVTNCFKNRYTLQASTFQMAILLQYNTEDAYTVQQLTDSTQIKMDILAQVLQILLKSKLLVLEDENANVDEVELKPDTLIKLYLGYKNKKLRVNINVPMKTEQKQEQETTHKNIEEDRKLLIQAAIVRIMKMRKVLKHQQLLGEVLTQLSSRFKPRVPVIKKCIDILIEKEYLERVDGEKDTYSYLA
Sequence of E3 (CUL1) (P62877 whole entry partner): as the sequence (P62877 whole entry partner) above

EC50 (E3 (CUL1)) | EC50 (E3 (CUL4)) | E3 (CUL4) Inhibition EC50 (E3 (CUL4)) | EC50 (cancer cells) | E3 (CUL1) Inhibition EC50 (E3 (CUL1)) | Apoptosis EC50 (cancer cells) | SMILES
> 100 µM | > 10 µM | – | > 20 µM | – | – | COc1ccc2c(=O)c(-c3cnn(Cc4ccc(Cl)cc4)c3)c(C(F)(F)F)oc2c1OC [MSSM-RJD-MM-001, 3-(1-(4-chlorobenzyl)-1H-pyrazol-4-yl)-7,8-dimethoxy-2-(trifluoromethyl)-4H-chromen-4-one]
96 µM | > 10 µM | – | > 20 µM | – | – | CCCCn1cc(-c2c(C(F)(F)F)oc3c(OC)c(OC)ccc3c2=O)cn1 [MSSM-RJD-MM-002, 3-(1-butyl-1H-pyrazol-4-yl)-7,8-dimethoxy-2-(trifluoromethyl)-4H-chromen-4-one]
> 100 µM | > 10 µM | – | > 20 µM | – | – | COc1ccc2c(=O)c(-c3cnn(C(C)C)c3)c(C(F)(F)F)oc2c1OC [MSSM-RJD-MM-003, 3-(1-isopropyl-1H-pyrazol-4-yl)-7,8-dimethoxy-2-(trifluoromethyl)-4H-chromen-4-one]
> 100 µM | > 10 µM | – | > 20 µM | – | – | CCCn1cc(-c2c(C(F)(F)F)oc3c(OC)c(OC)ccc3c2=O)cn1 [MSSM-RJD-MM-004]
> 100 µM | > 10 µM | – | > 20 µM | – | – | CCn1cc(-c2c(C(F)(F)F)oc3c(OC)c(OC)ccc3c2=O)cn1 [MSSM-RJD-MM-005]
7.6 µM | > 10 µM | – | > 20 µM | – | – | O=c1c(-c2cnn(Cc3ccc(Cl)cc3)c2)c(C(F)(F)F)oc2c(O)c(O)ccc12 [MSSM-RJD-MM-006, 3-(1-(4-chlorobenzyl)-1H-pyrazol-4-yl)-7,8-dihydroxy-2-(trifluoromethyl)-4H-chromen-4-one]
3.8 µM | > 10 µM | – | > 20 µM | – | – | CCCCn1cc(-c2c(C(F)(F)F)oc3c(O)c(O)ccc3c2=O)cn1 [MSSM-RJD-MM-007, 3-(1-butyl-1H-pyrazol-4-yl)-7,8-dihydroxy-2-(trifluoromethyl)-4H-chromen-4-one]
4 µM | > 10 µM | – | > 20 µM | – | – | CCCn1cc(-c2c(C(F)(F)F)oc3c(O)c(O)ccc3c2=O)cn1 [MSSM-RJD-MM-008, 7,8-dihydroxy-3-(1-propyl-1H-pyrazol-4-yl)-2-(trifluoromethyl)-4H-chromen-4-one]
6 µM | > 10 µM | – | > 20 µM | – | – | CCn1cc(-c2c(C(F)(F)F)oc3c(O)c(O)ccc3c2=O)cn1 [MSSM-RJD-MM-009, 3-(1-ethyl-1H-pyrazol-4-yl)-7,8-dihydroxy-2-(trifluoromethyl)-4H-chromen-4-one]
> 100 µM | > 10 µM | – | > 20 µM | – | – | COc1ccc2c(=O)c(-c3cnn(Cc4ccc(F)cc4)c3)c(C(F)(F)F)oc2c1OC [MSSM-RJD-MM-010, 3-(1-(4-fluorobenzyl)-1H-pyrazol-4-yl)-7,8-dimethoxy-2-(trifluoromethyl)-4H-chromen-4-one]
> 100 µM | > 10 µM | – | > 20 µM | – | – | COc1ccc2c(=O)c(-c3cnn(Cc4ccc(C(F)(F)F)cc4)c3)c(C(F)(F)F)oc2c1OC [MSSM-RJD-MM-011, 7,8-dimethoxy-2-(trifluoromethyl)-3-(1-(4-(trifluoromethyl)benzyl)-1H-pyrazol-4-yl)-4H-chromen-4-one]
82 µM | > 10 µM | – | – | – | – | COc1ccc2c(=O)c(-c3cnn(Cc4cccc(Cl)c4)c3)c(C(F)(F)F)oc2c1OC [MSSM-RJD-MM-017, 3-(1-(3-chlorobenzyl)-1H-pyrazol-4-yl)-7,8-dimethoxy-2-(trifluoromethyl)-4H-chromen-4-one]
> 100 µM | > 10 µM | – | – | – | – | COc1cccc(Cn2cc(-c3c(C(F)(F)F)oc4c(OC)c(OC)ccc4c3=O)cn2)c1 [MSSM-RJD-MM-018, 7,8-dimethoxy-3-(1-(3-methoxybenzyl)-1H-pyrazol-4-yl)-2-(trifluoromethyl)-4H-chromen-4-one]
92 µM | > 10 µM | – | – | – | – | COc1ccc2c(=O)c(-c3cnn(Cc4cccc(C)c4)c3)c(C(F)(F)F)oc2c1OC [MSSM-RJD-MM-019]

The remaining lines, values behind:

SMILES | EC50 (E3 (CUL1)) | EC50 (E3 (CUL4)) | E3 (CUL4) Inhibition EC50 (E3 (CUL4)) | EC50 (cancer cells) | E3 (CUL1) Inhibition EC50 (E3 (CUL1)) | Apoptosis EC50 (cancer cells)
CC(=O)Oc1ccc2c(=O)cc(C(F)(F)F)oc2c1OC(C)=O [KH-3-12] | 32 µM | > 75 µM | – | – | – | –
O=c1ccoc2c(O)c(O)ccc12 [KH-3-49] | 11 µM | > 75 µM | – | – | – | –
O=c1cc(C(F)(F)F)oc2c(O)c(O)ccc12 [KH-3-50] | 4.9 µM | – | Inactive | – | – | –
O=c1c(-c2cnn(-c3ccc(C(F)(F)F)cc3)c2)c(C(F)(F)F)oc2c(O)c(O)ccc12 [KH-3-150] | 9.3 µM | > 14 µM | – | 6 µM | – | –
O=c1c(-c2cnn(-c3cccc(Cl)c3)c2)c(C(F)(F)F)oc2c(O)c(O)ccc12 [KH-3-151] | 13 µM | ~14 µM | – | 5 µM | – | –
N#Cc1ccc(-n2cc(-c3c(C(F)(F)F)oc4c(O)c(O)ccc4c3=O)cn2)cc1 [KH-3-152] | 9 µM | > 14 µM | – | 30 µM | – | –
O=c1c(-c2ccnn2Cc2ccccc2)c(C(F)(F)F)oc2c(O)c(O)ccc12 [KH-3-160A] | 3.4 µM | ~20 µM | – | 21 µM | – | –
O=c1c(-c2cnn(-c3ccc(F)cc3)c2)c(C(F)(F)F)oc2c(O)c(O)ccc12 [KH-3-174] | 8 µM | > 14 µM | – | – | – | –
O=c1c(-c2cnn(-c3cccc(F)c3)c2)c(C(F)(F)F)oc2c(O)c(O)ccc12 [KH-4-41] | 5 µM | ~14 µM | – | 9 µM | – | –
NC(=O)c1ccccc1-n1cc(-c2c(C(F)(F)F)oc3c(O)c(O)ccc3c2=O)cn1 [KH-4-44] | 10 µM | – | Inactive | – | – | –
O=c1c(-c2cnn(-c3cccc(C(F)(F)F)c3)c2)c(C(F)(F)F)oc2c(O)c(O)ccc12 [KH-4-65] | 8 µM | > 14 µM | – | – | – | –
N#Cc1cccc(-n2cc(-c3c(C(F)(F)F)oc4c(O)c(O)ccc4c3=O)cn2)c1 [KH-4-66] | 9 µM | > 14 µM | – | – | – | –
O=c1c(-c2cnn(-c3cccnc3)c2)c(C(F)(F)F)oc2c(O)c(O)ccc12 [KH-4-67] | – | – | Inactive | – | Inactive | –
Nc1cccc(-n2cc(-c3c(C(F)(F)F)oc4c(O)c(O)ccc4c3=O)cn2)c1 [KH-4-78] | – | > 14 µM | – | – | – | Inactive
Cc1cccc(-n2cc(-c3c(C(F)(F)F)oc4c(O)c(O)ccc4c3=O)cn2)c1 [KH-4-79] | – | ~14 µM | – | 19 µM | – | –
O=c1c(-c2cnn(-c3ccccc3Cl)c2)c(C(F)(F)F)oc2c(O)c(O)ccc12 [KH-4-88] | – | > 14 µM | – | 26 µM | – | –
O=c1c(-c2cnn(-c3ccc(Cl)cc3Cl)c2)c(C(F)(F)F)oc2c(O)c(O)ccc12 [KH-4-98] | – | ~10 µM | – | 9 µM | – | –
O=c1c(-c2cnn(-c3ccc(Cl)c(Cl)c3)c2)c(C(F)(F)F)oc2c(O)c(O)ccc12 [KH-4-99] | – | ~10 µM | – | 9 µM | – | –
O=c1c(-c2cnn(-c3cc(Cl)cc(Cl)c3)c2)c(C(F)(F)F)oc2c(O)c(O)ccc12 [KH-4-116] | – | ~10 µM | – | 6 µM | – | –
O=c1c(-c2cnn(-c3ccccc3)c2)c(C(F)(F)F)oc2c(OS(=O)(=O)C(F)(F)F)c(O)ccc12 [KH-4-136] | – | – | Inactive | – | – | Inactive
O=c1c(-c2cnn(-c3ccccc3)n2)c(C(F)(F)F)oc2c(O)c(O)ccc12 [KH-5-09] | – | > 14 µM | – | – | – | –
